For the experiment, the target named is T1, MST1 (Homo sapiens, UniProt Q13043).
T1 sequence (Q13043 1-487): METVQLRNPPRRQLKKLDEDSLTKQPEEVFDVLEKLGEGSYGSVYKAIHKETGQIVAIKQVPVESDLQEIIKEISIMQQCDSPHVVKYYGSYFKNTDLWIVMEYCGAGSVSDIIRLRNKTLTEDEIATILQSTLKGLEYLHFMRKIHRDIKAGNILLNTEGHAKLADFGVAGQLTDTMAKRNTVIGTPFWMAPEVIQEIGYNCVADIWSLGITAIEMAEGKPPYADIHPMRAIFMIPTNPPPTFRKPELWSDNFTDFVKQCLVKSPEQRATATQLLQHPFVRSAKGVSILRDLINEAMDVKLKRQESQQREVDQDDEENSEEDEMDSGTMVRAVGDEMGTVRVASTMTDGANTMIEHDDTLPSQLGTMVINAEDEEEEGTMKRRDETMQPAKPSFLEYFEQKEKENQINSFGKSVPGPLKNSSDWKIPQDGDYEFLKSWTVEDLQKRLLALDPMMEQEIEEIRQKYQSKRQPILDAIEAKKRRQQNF
The experiment can be described thus: In vitro measurement of MST1 inhibition (Z′-Lyte kinase assay). The experiment is classed as biochemical.

[1] abbreviates: 1 μM ATP, read-out: IC50 (μM) 1 μM ATP.
[2] abbreviates: 50 μM ATP, read-out: IC50 (μM) 50 μM ATP.

Like-named read-outs stand apart in the source and are kept apart here. Some results are limits rather than exact numbers.

Regarding `CN(C)S(=O)(=O)N1CC=C(c2cnc(N)c(-c3ccc4c(c3)CCNC4=O)c2)CC1` [6-amino-N,N-dimethyl-5-(1-oxo-1,2,3,4-tetrahydroisoquinolin-6-yl)-5′,6′-dihydro-[3,4′-bipyridine]-1′(2′H)-sulfonamide], the IC50 (commonly the point on the concentration scale where inhibition reaches its midpoint) is under 0.15 µM under setting [1] and under 0.05 µM under setting [2].

In the case of `Nc1ncc(-c2ccc(F)cc2)nc1-c1ccc2c(c1)C1(CC1)CNC2=O` [6′-(3-amino-6-(4-fluorophenyl)pyrazin-2-yl)-2′,3′-dihydro-1′H-spiro[cyclopropane-1,4′-isoquinolin]-1′-one], the concentration for half-maximal inhibition (IC50) was under 0.15 µM under setting [1] and under 0.01 µM under setting [2].

For `Cc1cc(-c2cnc(N)c(-c3ccc4c(c3)CCNC4=O)c2)ncc1S(=O)(=O)NC1CC1` [6′-amino-N-cyclopropyl-4-methyl-5′-(1-oxo-1,2,3,4-tetrahydroisoquinolin-6-yl)-[2,3′-bipyridine]-5-sulfonamide], the half-inhibitory concentration (IC50) under setting [1] is under 0.01 µM and the IC50 under setting [2] was under 0.01 µM.

For the molecule `Nc1ncc(-c2ccc(S(=O)(=O)NC3CC3)cn2)cc1-c1ccc2c(c1)CCNC2=O` [6′-amino-N-cyclopropyl-5′-(1-oxo-1,2,3,4-tetrahydroisoquinolin-6-yl)-[2,3′-bipyridine]-5-sulfonamide], the IC50 under setting [1] was under 0.01 µM and the 50% inhibitory concentration (IC50) under setting [2] was under 0.01 µM.

Consider `CN(C1CC1)S(=O)(=O)c1ccc(-c2cnc(N)c(-c3ccc4c(c3)CCNC4=O)c2)nc1` [6′-amino-N-cyclopropyl-N-methyl-5′-(1-oxo-1,2,3,4-tetrahydroisoquinolin-6-yl)-[2,3′-bipyridine]-5-sulfonamide], for which the concentration for half-maximal inhibition (IC50) is, setting by setting: under setting [1], under 0.01 µM; under setting [2], under 0.01 µM.

Take `CN(C1CC1)S(=O)(=O)c1ccc(-c2cnc(N)c(-c3ccc4c(c3)CCNC4=O)c2)cn1` [6′-amino-N-cyclopropyl-N-methyl-5′-(1-oxo-1,2,3,4-tetrahydroisoquinolin-6-yl)-[3,3′-bipyridine]-6-sulfonamide]: the IC50 was under 0.01 µM under setting [1] and under 0.01 µM under setting [2].

With `CCN(C)S(=O)(=O)c1ccc(-c2cnc(N)c(-c3ccc4c(c3)CCNC4=O)c2)nc1` [6′-amino-N-ethyl-N-methyl-5′-(1-oxo-1,2,3,4-tetrahydroisoquinolin-6-yl)-[2,3′-bipyridine]-5-sulfonamide], the IC50 is under 0.01 µM under setting [1] and under 0.01 µM under setting [2].

With `CCCN(C)S(=O)(=O)c1ccc(-c2cnc(N)c(-c3ccc4c(c3)CCNC4=O)c2)nc1` [6′-amino-N-methyl-5′-(1-oxo-1,2,3,4-tetrahydroisoquinolin-6-yl)-N-propyl-[2,3′-bipyridine]-5-sulfonamide], the IC50 under setting [1] was under 0.01 µM and the IC50 under setting [2] is under 0.01 µM.

Regarding `N#C[C@]1(c2ccc(-c3cnc(N)c(-c4ccc5c(c4)CCNC5=O)n3)cc2)[C@@H]2COC[C@@H]21` [(1R,5S,6s)-6-(4-(5-amino-6-(1-oxo-1,2,3,4-tetrahydroisoquinolin-6-yl)pyrazin-2-yl)phenyl)-3-oxabicyclo[3.1.0]hexane-6-carbonitrile], the IC50 by setting is: under setting [1], under 0.05 µM; under setting [2], under 0.01 µM.

Turning to `CCNS(=O)(=O)c1ccc(-c2cnc(N)c(-c3ccc4c(c3)CCC/C4=N\O)c2)cc1` [(E)-4-(6-amino-5-(5-(hydroxyimino)-5,6,7,8-tetrahydronaphthalen-2-yl)pyridin-3-yl)-N-ethylbenzenesulfonamide], the IC50 was under 0.05 µM under setting [1] and under 0.01 µM under setting [2].

Take `CN(C1CC1)S(=O)(=O)c1ccc(-c2cnc(N)c(-c3ccc4c(c3)OC[C@@H](COCc3ccccc3)NC4=O)c2)cc1` [(R)-4-(6-amino-5-(3-((benzyloxy)methyl)-5-oxo-2,3,4,5-tetrahydrobenzo[f][1,4]oxazepin-8-yl)pyridin-3-yl)-N-cyclopropyl-N-methylbenzenesulfonamide]: the IC50 by setting is: under setting [1], under 0.15 µM; under setting [2], under 0.01 µM.

As to `C[C@@H]1COc2cc(-c3cc(-c4ccc(S(=O)(=O)N(C)C5CC5)cc4)cnc3N)ccc2C(=O)N1` [(R)-4-(6-amino-5-(3-methyl-5-oxo-2,3,4,5-tetrahydrobenzo[f][1,4]oxazepin-8-yl)pyridin-3-yl)-N-cyclopropyl-N-methylbenzenesulfonamide], the half-inhibitory concentration (IC50) under setting [1] is under 0.01 µM and the IC50 under setting [2] is under 0.01 µM.

Turning to `C[C@H]1CNc2cc(-c3nc(-c4ccc(S(=O)(=O)N(C)C5CC5)cc4)cnc3N)ccc2C(=O)N1` [(S)-4-(5-amino-6-(3-methyl-5-oxo-2,3,4,5-tetrahydro-1H-benzo[e][1,4]diazepin-8-yl)pyrazin-2-yl)-N-cyclopropyl-N-methylbenzenesulfonamide], the IC50 is under 0.01 µM under setting [1] and under 0.01 µM under setting [2].

As for `CN(C1CC1)S(=O)(=O)c1ccc(-c2cnc(N)c(-c3ccc4c(c3)OC[C@H](CO)NC4=O)c2)cc1` [(S)-4-(6-amino-5-(3-(hydroxymethyl)-5-oxo-2,3,4,5-tetrahydrobenzo[f][1,4]oxazepin-8-yl)pyridin-3-yl)-N-cyclopropyl-N-methylbenzenesulfonamide], the IC50 runs as follows: under setting [1], under 0.01 µM; under setting [2], under 0.01 µM.

With `C[C@H]1CNc2cc(-c3cc(-c4ccc(S(=O)(=O)N(C)C5CC5)cc4)cnc3N)ccc2C(=O)N1` [(S)-4-(6-amino-5-(3-methyl-5-oxo-2,3,4,5-tetrahydro-1H-benzo[e][1,4]diazepin-8-yl)pyridin-3-yl)-N-cyclopropyl-N-methylbenzenesulfonamide], the IC50 under setting [1] is under 0.01 µM and the IC50 under setting [2] is under 0.01 µM.

On to `C[C@H]1CNc2cc(-c3cc(-c4ccc(S(=O)(=O)NC5CC5)cc4)cnc3N)ccc2C(=O)N1` [(S)-4-(6-amino-5-(3-methyl-5-oxo-2,3,4,5-tetrahydro-1H-benzo[e][1,4]diazepin-8-yl)pyridin-3-yl)-N-cyclopropylbenzenesulfonamide], for which the IC50 is under 0.01 µM under setting [1] and under 0.01 µM under setting [2].

In the case of `C[C@H]1COc2cc(-c3cc(-c4ccc(S(=O)(=O)N(C)C5CC5)cc4)cnc3N)ccc2C(=O)N1` [(S)-4-(6-amino-5-(3-methyl-5-oxo-2,3,4,5-tetrahydrobenzo[f][1,4]oxazepin-8-yl)pyridin-3-yl)-N-cyclopropyl-N-methylbenzenesulfonamide], the IC50 was under 0.05 µM under setting [1] and under 0.01 µM under setting [2].

Turning to `CC(=O)NCc1ccc(-c2cnc(N)c(-c3ccc4c(c3)CCNC4=O)c2)cc1` [N-(4-(6-amino-5-(1-oxo-1,2,3,4-tetrahydroisoquinolin-6-yl)pyridin-3-yl)benzyl)acetamide], the IC50 is, setting by setting: under setting [1], under 0.05 µM; under setting [2], under 0.01 µM.

Turning to `CCS(=O)(=O)Nc1ccc(-c2cnc(N)c(-c3ccc4c(c3)CCNC4=O)c2)cc1` [N-(4-(6-amino-5-(1-oxo-1,2,3,4-tetrahydroisoquinolin-6-yl)pyridin-3-yl)phenyl)ethanesulfonamide], the IC50 under setting [1] was under 0.05 µM and the IC50 under setting [2] is under 0.01 µM.

For the molecule `C=CCN(C)S(=O)(=O)c1ccc(-c2cnc(N)c(-c3ccc4c(c3)CCNC4=O)c2)cc1` [N-allyl-4-(6-amino-5-(1-oxo-1,2,3,4-tetrahydroisoquinolin-6-yl)pyridin-3-yl)-N-methylbenzenesulfonamide], the IC50 reads like this: under setting [1], under 0.01 µM; under setting [2], under 0.01 µM.

`O=C1NCCc2cc(-c3c[nH]c4ncc(-c5ccc(S(=O)(=O)NC6CC6)cc5)cc34)ccc21` [N-cyclopropyl-4-(3-(1-oxo-1,2,3,4-tetrahydroisoquinolin-6-yl)-1H-pyrrolo[2,3-b]pyridin-5-yl)benzenesulfonamide]: the IC50 under setting [1] is under 0.05 µM and the IC50 under setting [2] was under 0.01 µM.

In the case of `CCOC(=O)Cc1ccc(-c2cnc(N)c(-c3ccc4c(c3)CCNC4=O)n2)cc1` [ethyl 2-(4-(5-amino-6-(1-oxo-1,2,3,4-tetrahydroisoquinolin-6-yl)pyrazin-2-yl)phenyl)acetate], the IC50 is under 0.15 µM under setting [1] and under 0.05 µM under setting [2].

As for `COC(=O)CN(C)S(=O)(=O)c1ccc(-c2cnc(N)c(-c3ccc4c(c3)CCNC4=O)c2)cc1` [methyl 2-(4-(6-amino-5-(1-oxo-1,2,3,4-tetrahydroisoquinolin-6-yl)pyridin-3-yl)-N-methylphenylsulfonamido)acetate], the IC50 is under 0.15 µM under setting [1] and under 0.05 µM under setting [2].

For the molecule `CC(C)(C)OC(=O)N1CC=C(c2cnc(N)c(-c3ccc4c(c3)CCNC4=O)c2)CC1` [tert-butyl 6-amino-5-(1-oxo-1,2,3,4-tetrahydroisoquinolin-6-yl)-5′,6′-dihydro-[3,4′-bipyridine]-1′(2′H)-carboxylate], the IC50 reads like this: under setting [1], under 0.15 µM; under setting [2], under 0.05 µM.

(Values after patent US8440652B2, “MST1 kinase inhibitors and methods of their use” (Lexicon Pharmaceuticals, Inc., priority 2011, dated 2013).)
